Results as given in publication PMC9780888, “4-Isobutylmethcathinone—A Novel Synthetic Cathinone with High In Vitro Cytotoxicity and Strong Receptor Binding Preference of Enantiomers” (Pharmaceuticals, 2022).
Counter-ions that a name gives are not always drawn.

Key:
[1] = tested on: MRC-5 cells; experiment: Fluorescence microscopy of cell morphology, MRC-5; format: cell-based, human; conditions: MRC-5, 24-h treatment, 100-500 µM
Excerpt: In addition to the evaluation of IBMcat cytotoxicity in various cell lines, its impact on cell morphology was also examined in CaCo-2 and MRC-5 cells after 24-h treatment. F-actin and cell nuclei were visualized in these cells treated with 100, 300, and 500-µM concentrations of IBMcat and its enantiomers. IBMcat (Figure 7) induced a considerable change in CaCo-2 cell morphology already from 300-µM concentration, the cells were smaller, bore roundish shapes, and grew in clusters when compared to control untreated cells. This could be ascribed to the substantial toxicity of IBMcat manifested already after 24 h at this concentration. No difference was observed between the individual enantiomers.
A total of 1 × 10^5 CaCo-2 and MRC-5 cells were seeded into 35-mm glass-bottom dishes for live-cell imaging ((#1.5, MatTek, USA; Ibidi dishes, Germany). After 16 h, the cells were gently washed with phosphate-buffered saline (PBS; pH 7.4), and then, cultivation media containing 100–500 µM IBMCat was added. Untreated cells and cells treated with the vehicle served as controls. After 24 h of the cell incubation with IBMCat, the cells were gently washed with PBS and then fixed with a 4% solution of formaldehyde (methanol-free, Thermo Fisher, USA) in PBS for 20 min. at 22 °C in the dark. Then, the fixative was discarded, and the cells were washed twice with PBS. […]

[2] = molecular target: T1, ADRA2C (alpha-2C adrenergic receptor) (Homo sapiens, UniProt P18825); experiment: PRESTO-Tango β-arrestin 2 recruitment assay, ADRA2C; format: cell-based; conditions: 500 nM
T1 construct: Tango construct (TEV cleavage site and tTA, as described for the dopamine receptor plasmids); host or cells: HTLA (HEK 293-derived)
T1 sequence (P18825 whole entry): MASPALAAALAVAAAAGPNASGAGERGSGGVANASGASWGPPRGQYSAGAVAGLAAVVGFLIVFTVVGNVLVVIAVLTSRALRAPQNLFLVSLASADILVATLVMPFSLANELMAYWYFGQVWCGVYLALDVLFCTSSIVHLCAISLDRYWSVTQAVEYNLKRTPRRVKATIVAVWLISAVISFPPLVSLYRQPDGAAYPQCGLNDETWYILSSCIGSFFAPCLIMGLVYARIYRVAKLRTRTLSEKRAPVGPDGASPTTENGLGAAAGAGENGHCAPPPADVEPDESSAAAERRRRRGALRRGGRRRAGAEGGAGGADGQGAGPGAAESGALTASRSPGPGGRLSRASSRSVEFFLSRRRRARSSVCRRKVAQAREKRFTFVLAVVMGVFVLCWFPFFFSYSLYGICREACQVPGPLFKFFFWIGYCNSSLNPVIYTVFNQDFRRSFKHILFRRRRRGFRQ
Protocol: (§1) The HTLA cell line was used for the PRESTO-Tango β-arrestin recruitment assay. The HTLA cells were provided as a gift from the laboratory of Bryan Roth (Roth Lab, USA). It is a human cell line derived from human embryonic kidney cells (HEK 293) stably expressing β-arrestin in a fusion with the tobacco etch virus protease (TEV) protease and the luciferase gene under the control of the transcription factor tetracycline transcriptional activator (tTA). The HTLA cells were cultured under standard incubation conditions (37 °C, 5% CO2, 95% humidity) in DMEM with 10% FBS. […]
(§2) The transfected HTLA cells were incubated for 24 h, and then 1 × 10^4 cells were seeded per well of a white 96-well clear bottom plate (Brand, Germany) in 40 μL of DMEM with 1% charcoal-stripped FBS (Thermo Fisher Scientific, USA). […] After 5 min., the luminescence was measured using a multi-mode microplate reader SpectraMax iD5 (Molecular Devices, San Jose, CA, USA) measuring the entire wavelength spectrum. All samples were measured in quadruplicates. The data were evaluated by Prism 7 software (GraphPad, […], CA, USA). […]
(§3) The error bar represents standard deviation from four replicates. The data were processed and evaluated by GraphPad Prism Software using one-way ANOVA: * p<0.05; ** p<0.01; *** […]

[3] = molecular target: T2, ADRB2 (beta-2 adrenergic receptor) (Homo sapiens, UniProt P07550); experiment: PRESTO-Tango β-arrestin 2 recruitment assay, ADRB2; format: cell-based
T2 construct: Tango construct (TEV cleavage site and tTA, as described for the dopamine receptor plasmids); host or cells: HTLA (HEK 293-derived)
T2 sequence (P07550 whole entry): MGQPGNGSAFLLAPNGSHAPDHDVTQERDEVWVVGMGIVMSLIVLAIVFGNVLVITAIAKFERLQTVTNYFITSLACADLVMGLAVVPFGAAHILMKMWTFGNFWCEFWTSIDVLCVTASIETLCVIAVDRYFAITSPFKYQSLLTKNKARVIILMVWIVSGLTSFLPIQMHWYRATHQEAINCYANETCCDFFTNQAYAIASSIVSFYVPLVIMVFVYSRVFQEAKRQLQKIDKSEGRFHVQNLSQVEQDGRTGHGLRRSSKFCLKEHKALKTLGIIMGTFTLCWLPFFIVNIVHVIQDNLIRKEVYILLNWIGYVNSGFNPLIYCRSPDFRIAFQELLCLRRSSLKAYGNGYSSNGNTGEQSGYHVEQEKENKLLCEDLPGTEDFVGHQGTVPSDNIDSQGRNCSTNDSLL
Protocol: as §1, §2, §3

| SMILES | cell number compared with control [1] | effect on cell shape [1] | increase in RLU compared to untreated control [2] [fold] | increase in the luminescence signal ([3]; ADRB2, 50 and 100 nM) [fold] | increase in the luminescence signal ([3]; ADRB2, 1 and 5 nM) [fold] |
| --- | --- | --- | --- | --- | --- |
| CNC(C)C(=O)c1ccc(CC(C)C)cc1.Cl (centres unmarked) [IBMcat, 4-isobutylmethcathinone hydrochloride] | considerably lesser cells than in the control | did not induce any shape-related effect | 3.7 | 1.5 |  |
| CN[C@@H](C)C(=O)c1ccc(CC(C)C)cc1 [S-IBMCat, (S)-4-isobutylmethcathinone hydrochloride] |  |  |  |  | 1.5 |
